For the test, the target named is T1, JAK3: Recombinant human kinase domain (Homo sapiens, UniProt P52333).
T1 construct: JAK3: Recombinant human kinase domain from Millipore (Cat #14-629) or prepared; purchased Millipore 14-629
Nature of the test: Determination of IC50 of Janus Kinase (JAK) inhibition, radioactive end-point 33P-ATP assay, JAK3. The class given is biochemical. The conditions noted are these: ATP 1.5 uM, peptide 50 uM, 20 minutes, read-out: JAK3-INHIB-DR/v1~NO ADDITIVE~Enzyme_Conc = 100.

Experimental findings from patent US8658646B2, “Pyrrolopyrazine kinase inhibitors” (Hoffmann-LaRoche Inc., priority 2011, dated 2014) are described below.

Where “and” joins values, the source holds several entries; their conditions need not be identical. Equal values may be shown once.

T1 sequence (P52333 822-1111 limits assumed): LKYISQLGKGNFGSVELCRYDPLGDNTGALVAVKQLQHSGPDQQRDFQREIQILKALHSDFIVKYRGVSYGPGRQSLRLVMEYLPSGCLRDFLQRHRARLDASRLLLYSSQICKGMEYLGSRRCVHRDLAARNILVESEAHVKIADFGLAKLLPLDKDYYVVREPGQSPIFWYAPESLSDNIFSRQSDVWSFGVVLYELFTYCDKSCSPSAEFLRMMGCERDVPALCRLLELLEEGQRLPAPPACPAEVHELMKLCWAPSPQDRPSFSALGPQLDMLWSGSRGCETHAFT

`C[C@H](CN1CC(C#N)C1)NC(=O)c1c[nH]c2ncc(-c3nn(C)c4cc(Cl)ccc34)nc12` [Example I-126, 2-(6-Chloro-1-methyl-1H-indazol-3-yl)-5H-pyrrolo[2,3-b]pyrazine-7-carboxylic acid [(R)-2-(3-cyano-azetidin-1-yl)-1-methyl-ethyl]-amide]: the IC50 came to 18.3 nM. To `C[C@H](CNC(=O)c1c[nH]c2ncc(-c3nn(C)c4cc(F)ccc34)nc12)C(N)=O` [Example I-137, 2-(6-Fluoro-1-methyl-1H-indazol-3-yl)-5H-pyrrolo[2,3-b]pyrazine-7-carboxylic acid ((R)-2-carbamoyl-propyl)-amide] belongs 132 nM.

With `Cn1nc(-c2cnc3[nH]cc(C(=O)N[C@@H](C(=O)N4CCC(C#N)CC4)C4CC4)c3n2)c2ccc(Cl)cc21` [Example I-2, 2-(6-Chloro-1-methyl-1H-indazol-3-yl)-5H-pyrrolo[2,3-b]pyrazine-7-carboxylic acid [(R)-2-(4-cyano-piperidin-1-yl)-1-cyclopropyl-2-oxo-ethyl]-amide], the IC50 was determined as 0.575 nM.

`CC[C@@H](COC)NC(=O)c1c[nH]c2ncc(-c3nn(C)c4cc(Cl)ccc34)nc12` [Example I-173, 2-(6-Chloro-1-methyl-1H-indazol-3-yl)-5H-pyrrolo[2,3-b]pyrazine-7-carboxylic acid ((S)-1-methoxymethyl-propyl)-amide]: the IC50 was found to be 3.56 nM. `C[C@@H](NC(=O)c1c[nH]c2ncc(-c3nn(C)c4cc(C(F)(F)F)ccc34)nc12)C(=O)N1CC(C#N)C1` [Example I-18, 2-(1-Methyl-6-trifluoromethyl-1H-indazol-3-yl)-5H-pyrrolo[2,3-b]pyrazine-7-carboxylic acid [(R)-2-(3-cyano-azetidin-1-yl)-1-methyl-2-oxo-ethyl]-amide]: the IC50 turned out to be 1.15 nM. To `Cn1nc(-c2cnc3[nH]cc(C(=O)NC4(c5ccc(Br)cc5)CCC4)c3n2)c2ccc(F)cc21` [Example I-210, 2-(6-Fluoro-1-methyl-1H-indazol-3-yl)-5H-pyrrolo[2,3-b]pyrazine-7-carboxylic acid [1-(4-bromo-phenyl)-cyclobutyl]-amide] belongs 102 nM; to `C[C@@H](NC(=O)c1c[nH]c2ncc(-c3nn(C)c4cc(Cl)ccc34)nc12)C(C)(C)O` [Example I-12, 2-(6-Chloro-1-methyl-1H-indazol-3-yl)-5H-pyrrolo[2,3-b]pyrazine-7-carboxylic acid ((R)-2-hydroxy-1,2-dimethyl-propyl)-amide], 19.2 nM; to `COC[C@H](C)NC(=O)c1c[nH]c2ncc(-c3cnc4cc(C#N)ccn34)nc12` [Example I-222, 2-(7-Cyano-imidazo[1,2-a]pyridin-3-yl)-5H-pyrrolo[2,3-b]pyrazine-7-carboxylic acid ((S)-2-methoxy-1-methyl-ethyl)-amide], 9.9 nM.

As to `Cn1nc(-c2cnc3[nH]cc(C(=O)N[C@@H](C(=O)N4CCC(C#N)CC4)C4CC4)c3n2)c2cc(Cl)c(Cl)cc21` [Example I-67, 2-(5,6-Dichloro-1-methyl-1H-indazol-3-yl)-5H-pyrrolo[2,3-b]pyrazine-7-carboxylic acid [(R)-2-(4-cyano-piperidin-1-yl)-1-cyclopropyl-2-oxo-ethyl]-amide], the IC50 is 0.48 nM.

For `C[C@@H](NC(=O)c1c[nH]c2ncc(-c3nn(CCN(C)C)c4cc(Cl)ccc34)nc12)C(=O)N1CC(C#N)C1` [Example I-230, 2-[6-Chloro-1-(2-dimethylamino-ethyl)-1H-indazol-3-yl]-5H-pyrrolo[2,3-b]pyrazine-7-carboxylic acid [(R)-2-(3-cyano-azetidin-1-yl)-1-methyl-2-oxo-ethyl]-amide], the IC50 is 12.3 nM.

As for `C[C@@H](NC(=O)c1c[nH]c2ncc(-c3nn(C)c4cc(F)ccc34)nc12)c1cccc(C#N)c1` [Example I-217, 2-(6-Fluoro-1-methyl-1H-indazol-3-yl)-5H-pyrrolo[2,3-b]pyrazine-7-carboxylic acid [(R)-1-(3-cyano-phenyl)-ethyl]-amide], the IC50 is 23.2 nM. For the compound `C[C@@H](NC(=O)c1c[nH]c2ncc(-c3nn(CC(=O)O)c4cc(Cl)ccc34)nc12)C(=O)N1CC(C#N)C1` [Example I-226, (6-Chloro-3-{7-[(R)-2-(3-cyano-azetidin-1-yl)-1-methyl-2-oxo-ethylcarbamoyl]-5H-pyrrolo[2,3-b]pyrazin-2-yl}-indazol-1-yl)-acetic acid], the IC50 was determined as 8.1 nM. To `C[C@@H](NC(=O)c1c[nH]c2ncc(-c3nn(C)c4cc(F)ccc34)nc12)C1(C#N)CCCC1` [Example I-100, 2-(6-Fluoro-1-methyl-1H-indazol-3-yl)-5H-pyrrolo[2,3-b]pyrazine-7-carboxylic acid [(R)-1-(1-cyano-cyclopentyl)-ethyl]-amide] belongs 156 nM. To `Cn1nc(-c2cnc3[nH]cc(C(=O)N[C@@H](C(=O)N4CCC(C#N)CC4)C4CC4)c3n2)c2c1CCCC2` [Example I-10, 2-(1-Methyl-4,5,6,7-tetrahydro-1H-indazol-3-yl)-5H-pyrrolo[2,3-b]pyrazine-7-carboxylic acid [(R)-2-(4-cyano-piperidin-1-yl)-1-cyclopropyl-2-oxo-ethyl]-amide] belongs 1.51 nM; to `COC[C@H](C)NC(=O)c1c[nH]c2ncc(-c3nn(Cc4cccnc4)c4cc(Cl)ccc34)nc12` [Example I-235, 2-(6-Chloro-1-pyridin-3-ylmethyl-1H-indazol-3-yl)-5H-pyrrolo[2,3-b]pyrazine-7-carboxylic acid ((S)-2-methoxy-1-methyl-ethyl)-amide], 0.49 nM.

On to `CC(C)n1nc(-c2cnc3[nH]cc(C(=O)N[C@H](C)C(=O)N4CC(C#N)C4)c3n2)c2ccc(Cl)cc21` [Example I-91, 2-(6-Chloro-1-isopropyl-1H-indazol-3-yl)-5H-pyrrolo[2,3-b]pyrazine-7-carboxylic acid [(R)-2-(3-cyano-azetidin-1-yl)-1-methyl-2-oxo-ethyl)-amide], for which the IC50 amounted to 3.13 nM. As to `Cn1nc(-c2cnc3[nH]cc(C(=O)NC4CCCC(=O)C4)c3n2)c2ccc(Cl)cc21` (stereo not shown) [Example I-147, 2-(6-Chloro-1-methyl-1H-indazol-3-yl)-5H-pyrrolo[2,3-b]pyrazine-7-carboxylic acid (3-oxo-cyclohexyl)-amide], the IC50 amounted to 38.4 nM.

Turning to `CCC[C@@H](NC(=O)c1c[nH]c2ncc(-c3nn(C)c4cc(F)ccc34)nc12)C(=O)N1CC(F)C1` [Example I-59, 2-(6-Fluoro-1-methyl-1H-indazol-3-yl)-5H-pyrrolo[2,3-b]pyrazine-7-carboxylic acid [(R)-1-(3-fluoro-azetidine-1-carbonyl)-butyl]-amide], the IC50 is 3.19 nM. For `Cn1nc(-c2cnc3[nH]cc(C(=O)N[C@@H]4CCN(Cc5ccccc5)C4)c3n2)c2ccc(F)cc21` [Example I-213, 2-(6-Fluoro-1-methyl-1H-indazol-3-yl)-5H-pyrrolo[2,3-b]pyrazine-7-carboxylic acid ((R)-1-benzyl-pyrrolidin-3-yl)-amide], the IC50 amounted to 76.1 nM. As to `C[C@@H](NC(=O)c1c[nH]c2ncc(-c3nn(C)c4cc(Cl)c(F)cc34)nc12)C(=O)N1CC(C#N)C1` [Example I-30, 2-(6-Chloro-5-fluoro-1-methyl-1H-indazol-3-yl)-5H-pyrrolo[2,3-b]pyrazine-7-carboxylic acid [(R)-2-(3-cyano-azetidin-1-yl)-1-methyl-2-oxo-ethyl]-amide], the IC50 was 1.45 nM. To `C[C@@H](NC(=O)c1c[nH]c2ncc(-c3nn(CCN4CCOCC4)c4cc(Cl)ccc34)nc12)C(=O)N1CC(C#N)C1` [Example I-231, 2-[6-Chloro-1-(2-morpholin-4-yl-ethyl)-1H-indazol-3-yl]-5H-pyrrolo[2,3-b]pyrazine-7-carboxylic acid [(R)-2-(3-cyano-azetidin-1-yl)-1-methyl-2-oxo-ethyl]-amide] belongs 2.08 nM.

In the case of `CCCn1nc(-c2cnc3[nH]cc(C(=O)N[C@H](C)C(=O)N4CC(C#N)C4)c3n2)c2ccc(Cl)cc21` [Example I-92, 2-(6-Chloro-1-propyl-1H-indazol-3-yl)-5H-pyrrolo[2,3-b]pyrazine-7-carboxylic acid [(R)-2-(3-cyano-azetidin-1-yl)-1-methyl-2-oxo-ethyl]-amide], the IC50 amounted to 2.08 nM. Take `COC[C@@H](NC(=O)c1c[nH]c2ncc(-c3nn(C)c4cc(Cl)ccc34)nc12)C(=O)N1CC(C#N)C1` [Example I-175, 2-(6-Chloro-1-methyl-1H-indazol-3-yl)-5H-pyrrolo[2,3-b]pyrazine-7-carboxylic acid [(R)-2-(3-cyano-azetidin-1-yl)-1-methoxymethyl-2-oxo-ethyl]-amide]: the IC50 is 0.54 nM. To `CC(C)CC(C)NC(=O)c1c[nH]c2ncc(-c3nn(C)c4cc(F)ccc34)nc12` (stereo not shown) [Example I-187, 2-(6-Fluoro-1-methyl-1H-indazol-3-yl)-5H-pyrrolo[2,3-b]pyrazine-7-carboxylic acid (1,3-dimethyl-butyl)-amide] belongs 20.4 nM; to `CCOC[C@H](C)NC(=O)c1c[nH]c2ncc(-c3nn(C)c4cc(Cl)ccc34)nc12` [Example I-171, 2-(6-Chloro-1-methyl-1H-indazol-3-yl)-5H-pyrrolo[2,3-b]pyrazine-7-carboxylic acid ((S)-2-ethoxy-1-methyl-ethyl)-amide], 5.78 nM; to `CO[C@@H](C)CNC(=O)c1c[nH]c2ncc(-c3nn(C)c4cc(F)ccc34)nc12` [Example I-135, 2-(6-Fluoro-1-methyl-1H-indazol-3-yl)-5H-pyrrolo[2,3-b]pyrazine-7-carboxylic acid ((S)-2-methoxy-propyl)-amide], 6.9 nM. Take `CC(COc1ccccc1)NC(=O)c1c[nH]c2ncc(-c3nn(C)c4cc(F)ccc34)nc12` (stereo not shown) [Example I-202, 2-(6-Fluoro-1-methyl-1H-indazol-3-yl)-5H-pyrrolo[2,3-b]pyrazine-7-carboxylic acid (1-methyl-2-phenoxy-ethyl)-amide]: the IC50 was 136 nM. As for `Cn1nc(-c2cnc3[nH]cc(C(=O)NC4(c5cccc(Br)c5)CCC4)c3n2)c2ccc(F)cc21` [Example I-209, 2-(6-Fluoro-1-methyl-1H-indazol-3-yl)-5H-pyrrolo[2,3-b]pyrazine-7-carboxylic acid [1-(3-bromo-phenyl)-cyclobutyl]-amide], the IC50 is > 1000 nM and 830 nM.
